Laboratory results taken from patent US8969515B2, “Pharmaceutical composition for treating hyperproliferative diseases” (OOO “MetaMax”, priority 2011, dated 2015).

Columns and labels:
[1] = tested on: cell lines HEK293 and A549; test: Cell cycle arrest by chemotherapeutics alone, preliminary experiments; assay type: cell-based, human; settings: 100 nMol
From the text: This concentration for all drugs was 100 nMol.

[2] = tested on: HCT-116 cells xenograft; test: Anti-tumor activity in vivo, local injection, HCT-116 xenograft; design: species or system mice; settings: 0.1 mg group, 28 days
From the text: The tumor nodule of HCT-116 cells is characterized by a large in size and the presence of ulceration. In the control group, on day 28 of the experiment the average tumor volume reached 679 mm^3, 3 mice died during the experiment. In the test group, a lower rate of tumor growth was observed (FIG. 32), on day 28 of the experiment the average tumor volume was 225.4 mm^3, the number of dead animals in the experimental group was 2.

[3] = tested on: A549 cells xenograft; test: Anti-tumor activity in vivo, local injection, A549 xenograft; settings: 24 days
From the text: 10 mice constituted the 1st treatment group. […] The experiment lasted 24 days.
In the experimental groups, we observed a reduced tumor growth and on day 6 after the begin of administration of the peptide there could be observed a significant reduction in tumor volume in experimental groups compared with the control ones (FIG. 32). The experiment lasted 24 days. During this time, we performed 10 injections of the chimeric peptide in the experimental groups. In the control group, on day 24 of the experiment, the average tumor volume in mice was 95.24 mm^3, one mouse died. In the first experimental group (administered dose of peptide—0.1 mg) average tumor volume was 39.29 mm^3, one mouse died.

[4] = tested on: HEK293 cell line synchronized in G0/G1 phase; test: Cell cycle phase analysis by flow cytofluorometry after sync block removal; assay type: cell-based, human; settings: for antiproliferative effect on cell cycle: peptide added at sync block removal
Method: (§1) In experiments with cell lines we evaluated the distribution of cells according to the phases of the cell cycle and calculated the proliferation index. For analysis we used software FloMax 2.0 (built-in option of flow cytofluorimenter) and software Modfit LT 3.0 (FIGS. 7 and 8). We also carried out the determination of the proportion of cells entered the apoptosis based on size of “pre-G1-hypodiploid” peak on DNA histogram (FIG. 8 (B)). Experiments were performed both on cell lines synchronized in phase G1/S, and on non-synchronized cell lines Raji, Jurkatt, A549, HEK 293, MCF-7.
The study of the effects of peptides was conducted on transplantable cell cultures. In order to study alterations in the expression of specific intracellular regulators and in order to improve visualization of the experiments, the cells were pre-synchronized.
At the first stage of the evaluation of the obtained results, we investigated the effect of internalizable chimeric peptides with different active centers—p16INK4a and p21/CIP/KIP. The chimeric peptide to be studied was added at the moment of the sync block removal. Cell cycle analysis was performed every 2 hours for 24 hours after removal of the block.
We investigated chimeric peptides having p16INK4a active center and having different types of vectors, Tat and pAntp. […] As is seen from FIG. 18, plots of dependencies of the number of cells in the cell cycle phases are similar in appearance for the two types of peptide vectors carrying p16 fragment. In the control sample—synchronized cell culture without the addition of the study peptide, the number of cells in G0/G1-phase starts to decline as early as 2 hours after removal of the synch block, and 10 hours later we recorded the lowest number of cells in G0/G1-phase. S-phase in the control samples starts to increase 4-6 hours after sync block removal and reaches a maximum after 12 hours.

[5] = tested on: cyclin B; test: Cyclin B mRNA expression by quantitative RT-PCR; assay type: cell-based, human
Method: FIG. 29. Study of cyclin B synthesis in HEK293 cell culture by adding peptide Tat_p16 (30 µMol). […] X-axis—incubation time (hours), Y-axis—abstract units.
It is known that the phosphorylation of pRb is an initiating step for activation of expression of cyclins A and B and for transition of cells from G1 into S phase of the cell cycle. Quantitative PCR method was used to study mRNA expression level of cyclin B when exposed to Tat_p16 peptide. For this purpose during experiment on synchronized culture with adding Tat_p16 chimeric peptide at a concentration of 40 µmol, we performed a parallel selection of cells from samples for RNA extraction, whereas a part of the cells served the determination of the cell cycle phases. Further processing of the material involved RNA isolation and quantitative PCR reaction setting (RT-PCR) carried out according to the protocol.

[6] = tested on: HEK293 cell line; test: Apoptosis level (hypodiploid peak) in HEK293 culture; assay type: cell-based, human; settings: synchronized culture
Method: FIG. 16. Mean apoptosis values for synchronized HEK293 cell culture in a series of experiments using internalized peptides with active centers p21 and p16. Incubation time with peptide is 24 hours. Concentration of peptides is 40 µMol. Y-axis—percentage of apoptotic particles.
FIG. 20. Mean apoptosis values in synchronized culture of HEK293 after addition of chimeric peptides Tat_p16 and pAntp p16. […] The peptides were added at the moment of synchronization block removal. The effect was evaluated after 24 hours.
FIG. 21. Change in the level of apoptosis in the cell culture depending on the incubation time with peptides Tat_p16 and pAntp_p16 for synchronized 293 cell line (A) and synchronized A549 cell line (B).
as §1

[7] = tested on: cell lines A549, HEK293 and MCF-7; test: Apoptosis level with pAntp chimeric peptide versions; assay type: cell-based, human; settings: 40 μM, lines A549 and HEK 293, non-synchronized and synchronized
Method: FIG. 24. Effect of chimeric peptides containing a p16INK4a fragment on apoptosis level in non-synchronized and synchronized cell line A549. Peptide concentration is 40 µM. Y-axis—percentage of apoptotic bodies.
FIG. 25. Effect of chimeric peptides containing a p16INK4a fragment on apoptosis level in non-synchronized and synchronized HEK293 cell line. Peptide concentration is 40 µM. Y-axis—percentage of apoptotic bodies.
FIG. 26. Comparisons of cytotoxic effect of chimeric peptides pAntpp16 (1, 2) on HEK293 cell culture.
In the next phase of work, we assessed the dependence of the cytotoxic effect exerted by the chimeric test peptides with the peptide vector pAntp. An experiment to determine the level of apoptosis was carried out on the cell lines A549 (human, lung carcinoma), HEK293 (human, embryonic kidney) and MCF-7 (human, mammary adenocarcinoma). Cells were cultured by standard techniques in DMEM medium containing 10% of FSB. A part of the cells was previously synchronized using the method of double thymidine block and synchronization method with the depleted media (see “Experiment. Parts”). The chimeric test peptides pAntp-p16 (1 and 2) were added to the culture medium. As a negative control we used cells treated with the peptide pAntp_zam (FIGS. 24, 25).

[8] = tested on: HEK293 cell line, non-synchronized and synchronized; test: Effect of pAntp chimeric peptide versions on cell cycle, HEK293; assay type: cell-based, human; settings: 40 μM; for changes of the cell cycle phases: synchronized and nonsynchronized cells
Method: FIG. 22. Effect of chimeric peptide pAntp containing a p16INK4a fragment, on the cell cycle. A—non-synchronized cell line HEK293, B—cell line HEK293 synchronized in S-phase. Peptide concentration is 40 µM. The peptides are pAntp and three further peptides 1-p16, 2-p16, and 3-p16, wherein peptides 1-p16 and 2-p16 are synthetic peptides differing by the location of the 20 amino acids fragment of p16 relative to pAntp; and peptide 3-p16 is a genetically engineered peptide comprising a 50 amino acids insert of protein Antp.
We used three versions of the chimeric peptide containing p16INK4a active center and pAntp vector. These chimeric peptides differ by location of the active center relative to N-C termini of the molecule and the presence of an insertion of 44 amino acids ([…], SEQ ID NO: 9) for peptide 3 produced by genetic engineering method (Table 1).
In the study of the properties of these peptides we also investigated synchronized and nonsynchronized cell cultures. In a synchronized culture, the peptide was added at the time of sync block removal and in the nonsynchronized at a monolayer density (for adhesion cultures) of ~50%.

[9] = after sync block removal, 40 μM

O=c1[nH]cc(F)c(=O)[nH]1 [5-fluorouracil] was tested, and the “cell cycle arrest phase” value [1] was “G0/G1-phase arrest”.

In the case of COc1cc([C@@H]2c3cc4c(cc3[C@@H](O[C@@H]3O[C@@H]5CO[C@@H](C)O[C@H]5[C@H](O)[C@H]3O)[C@H]3COC(=O)[C@H]23)OCO4)cc(OC)c1O [Etoposide], the “cell cycle arrest phase” value [1] is reported as “S-phase arrest”.

CC(=O)O[C@H]1C(=O)[C@@]2(C)[C@H]([C@H](OC(=O)c3ccccc3)[C@]3(O)C[C@H](OC(=O)[C@H](O)[C@@H](NC(=O)c4ccccc4)c4ccccc4)C(C)=C1C3(C)C)[C@]1(OC(C)=O)CO[C@@H]1C[C@@H]2O [Taxol] was tested, and the “cell cycle arrest phase” value [1] was “G2/M-phase arrest”.

CC[C@H](C)[C@H](NC(=O)[C@H](CCCCN)NC(=O)[C@@H](NC(=O)[C@H](CCC(N)=O)NC(=O)[C@H](CCCNC(=N)N)NC(=O)[C@H](CO)NC(=O)[C@H](CCCNC(=N)N)NC(=O)[C@H](C)NC(=O)CNC(=O)[C@H](C)NC(=O)[C@H](CCCNC(=N)N)NC(=O)[C@H](Cc1c[nH]cn1)NC(=O)[C@H](CC(C)C)NC(=O)[C@@H](NC(=O)[C@@H](NC(=O)[C@H](CC(C)C)NC(=O)[C@@H](NC(=O)[C@H](CC(=O)O)NC(=O)[C@H](CC(C)C)NC(=O)[C@H](Cc1ccccc1)NC(=O)CNC(=O)[C@H](CCC(=O)O)NC(=O)[C@H](CCCNC(=N)N)NC(=O)[C@H](C)NC(=O)[C@H](C)NC(=O)[C@@H](N)CC(=O)O)[C@@H](C)O)C(C)C)C(C)C)[C@@H](C)CC)C(=O)N[C@@H](Cc1c[nH]c2ccccc12)C(=O)N[C@@H](Cc1ccccc1)C(=O)N[C@@H](CCC(N)=O)C(=O)N[C@@H](CC(N)=O)C(=O)N[C@@H](CCCNC(=N)N)C(=O)N[C@@H](CCCNC(=N)N)C(=O)N[C@@H](CCSC)C(=O)N[C@@H](CCCCN)C(=O)N[C@@H](Cc1c[nH]c2ccccc12)C(=O)N[C@@H](CCCCN)C(=O)N[C@@H](CCCCN)C(=O)O [pAntp_p16(2)] was tested, and the “number of dead animals” value [2] was 2, the mice died ([3]; 0.1 mg group) was “one” and the mice died ([3]; 0.2 mg group) was “no animals died”.

In the case of “DAAREGFLDTLVVLHRAGARS YGRKKRRQRRRG (DAAREGFLDTLVVLHRAGARSYGRKKRRQRRRG; Tat_p16, chimeric peptide; listed as Homo Sapiens)”, the “time at which G0/G1 phase starts to decrease” value [4, 9] is reported as “simultaneously with G0/G1-phase in control sample”, the “time at which S-phase begins to increase” value [4, 9] is reported as 12 h and the “time of maximum S-phase” value [4, 9] is reported as 14 h. The “time of maximum difference of cell cycle phases between control and test samples” value [4, 9] was “about 12 hours”, the “time of maximum difference of cell cycle phases between control and test samples” value ([4]; after sync block removal, 40 μM, listed as Tatp16) was 12 h and the “antiproliferative effect on cell cycle” value ([4]; 40 μM) was “arrest of G1-S transition”. The “time at which increase in G2-phase occurs” value ([4]; same experiment as cyclin B RT-PCR) was 16 h, the “effect on expression of cyclin B” value ([5]; HEK293 synchronized in G0/G1, Tat_p16 40 μmol) was “inhibits the expression of B cyclin” and the “incubation time after which cyclin B expression level increases” value ([5]; control maximum at 12 hours) was 16 h.

With YGRKKRRQRRRGPVKRRLDL [Tat_p21] the “time of maximum difference of cell cycle phases between control and test samples” value [4, 9] was 10 to 12 h, the “time at which G2/M-phase level reaches a maximum value” ([4]; average) was 18 to 20 h and the “antiproliferative effect on cell cycle” value ([4]; 40 μM) was “arrest of transition of cells from S-phase in G2/M-phase”. For the same molecule, the “level of S-phase remaining over 14 hours of incubation” value ([4]; test sample, over 14 hours) was 65-70%, the “dependence of the level of apoptosis on the incubation time” value [6] was “has not been observed” and the “mean apoptosis values versus control samples” value ([6]; 24 hours, 40 μMol) was “no significant differences”.

In the case of “pAntp_p16(1): chimeric peptide, p16INK4a fragment at C-terminus, pAntp at N-terminus (SEQ ID NO: 10), solid phase synthesis (RQIKIWFQNRRMKWKKDAAREGFLDTLVVLHRAGAR; pAntp_p16(1), chimeric peptide; listed as Homo Sapiens)”, the “effect on the level of apoptosis” value [7] is reported as “markedly increases”, the “changes of the cell cycle phases” value [8] is reported as “fails to induce the expected cytostatic effect” and the “anti-proliferative effect on cells” value ([8]; summary of HEK293 and A549 experiments) is reported as “does not have an anti-proliferative effect”.

In the case of “pAntp_zam: control peptide with p16INK4a sequence (amino acids 82-102) with substitution of tyrosine by alanine at position 92 (RQIKIWFQNRRMKWKKDAAREGFLDALVVLHRAGAR; pAntp_zam, chimeric peptide; listed as Homo Sapiens) [reference compound]”, the “effect on the level of apoptosis” value [7] is reported as “not affected” and the “changes of the cell cycle phases” value [8] is reported as “do not differ from the control”.
